Patent publication US20070123460A1, “Probiotic compounds from Lactobacillus GG and uses therefor” (THE UNIVERSITY OF CHICAGO, priority 2005, published 2007)

Tested on: Hsp72
Assay: Hsp72 induction in YAMC cells, Western blot
Assay type: cell-based, mouse
Conditions: inhibitor 2 hours before LGG-CM (15 minutes); harvest 4 hours later; SB203580 20 μM, SP600125 20 μM, PD98059 50 μM
Method: Prior to each study, cells were plated at a density of 2×10^5 per 60 mm tissue culture dish. For RNA preparation, cells were plated at a density of 7.5×10^5 cells per p100 mm dish. After 24 hours of growth at 33° C., the medium was replaced with IFN-free media and cells were moved to 37° C. (non-permissive conditions) for 24 hours to allow development of the differentiated colonocyte phenotype. […] Heat shock controls were heat-shocked at 42° C. for 23 minutes and then left at 37° C. for 2 hours before harvest.
Intestinal epithelial cells were treated with conditioned media from the probiotic LGG and then assayed for inducible heat shock protein expression. For Western blot analyses of expression, cells were washed twice and then scraped in ice-cold PBS (137 mM NaCl, 2.7 mM KCl, 8 mM Na2HPO4, pH 7.4). Cells were pelleted (14,000×g for 20 seconds at room temperature), then resuspended in ice-cold lysis buffer (10 mM Tris, pH 7.4, 5 mM MgCl2, 50 U/ml each of DNAse and RNAse, plus complete protease inhibitor cocktail (Roche Molecular Biochemicals, Indianapolis, Ind.)). Protein concentrations were determined using the bicinchoninic acid procedure (Smith et al., 1985). Samples were heated to 75° C. for 5 minutes after addition of 3× Laemmli Stop buffer, then stored at −80° C. until use.
Twenty micrograms of protein per lane were resolved on 12.5% SDS-PAGE. […]

COc1cccc(-c2cc(=O)c3ccccc3o2)c1N [PD98059]
inhibition of LGG-CM-induced Hsp72 expression: more modest effect
